Laboratory results taken from patent US11834463B2, “High affinity macrocyclic FKB51-inhibitors for treatment of psychiatric disorders” (priority 2020, dated 2023).
Read-outs that look alike come from different tables or passages of the source.

Tests used:
FKBP12 = FKBP12 (Homo sapiens, UniProt P62942); assay: competitive fluorescence polarization assay, binding to FKBP12
Description: (§1) All macrocyclic compounds were tested in a competitive fluorescence polarization assay for binding towards FKBP51 as well as the homologs FKBP12, FKBP12.6 and FKBP52 (Table 1).
(§2) Example 8: […] of the Macrocyclic FKBP51 Ligands by SPPS

FKBP12.6 = FKBP12.6 (Homo sapiens, UniProt P68106); assay: competitive fluorescence polarization assay, binding to FKBP12.6
Description: as §1, §2

FKBP51FK1 = molecular target: T1, FKBP51FK1 (Homo sapiens, UniProt Q13451); assay: biochemical
T1 sequence (Q13451 42-130 limits assumed): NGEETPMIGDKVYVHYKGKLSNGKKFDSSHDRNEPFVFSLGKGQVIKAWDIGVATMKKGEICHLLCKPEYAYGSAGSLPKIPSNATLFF
Description: as §1, §2

[1] = Table 1, competitive Fluorescence Polarization Assay, read-out: Ki [nM] FKBP12
[2] = Table 1, competitive Fluorescence Polarization Assay, read-out: Ki [nM] FKBP12.6
[3] = Ki [nM] FKBP51FK1, Table 1, competitive Fluorescence Polarization Assay
[4] = affinity, same values as Table 2 FKBP51FK1

FKBP12, sequence (P62942 whole entry): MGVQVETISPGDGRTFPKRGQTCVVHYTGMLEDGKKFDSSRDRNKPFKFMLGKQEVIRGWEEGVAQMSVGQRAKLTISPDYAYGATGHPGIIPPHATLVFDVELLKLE
FKBP12.6, sequence (P68106 whole entry): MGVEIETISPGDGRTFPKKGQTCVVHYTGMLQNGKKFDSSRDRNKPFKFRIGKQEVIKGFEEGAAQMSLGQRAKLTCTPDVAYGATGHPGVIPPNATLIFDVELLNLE

SMILES | Ki (FKBP12; [1]) | Ki (FKBP12.6; [2]) | Ki (FKBP51FK1; [3]) | Ki (FKBP12; Table 2, read-out: FKBP12 Ki) | Ki (FKBP12.6; Table 2, read-out: FKBP12.6 Ki) | Ki (FKBP51FK1; [4]) | further results
COc1ccc(CC[C@H]2OC(=O)[C@@H]3CCCCN3C(=O)[C@@H](C3CCCCC3)c3cc(OC)c(OC)c(c3)OCCCOc3cccc2c3)cc1OC [Compound 58] | 401 nM | 87 nM | 54 nM | – | – | – | –
COc1ccc(CC[C@H]2OC(=O)[C@@H]3CCCCN3C(=O)[C@@H](C3CCCCC3)c3cc(OC)c(OC)c(c3)OCCC(=O)CCOc3cccc2c3)cc1OC [Compound 61a] | 38 nM | 22 nM | 8 nM | – | – | – | –
COc1ccc(CC[C@H]2OC(=O)[C@@H]3CCCCN3C(=O)[C@@H](C3CCCCC3)CC(O)C(O)COCCOc3cccc2c3)cc1OC (stereo partly drawn) [Compound 82, (2R,5S,12R)-12-cyclohexyl-2-[2-(3,4-dimethoxyphenyl)ethyl]-14,15-dihydroxy-3,17,20-trioxa-10-azatricyclo[19.3.1.0^5,10]pentacosa-1(25),21,23-triene-4,11-dione] | – | – | – | – | – | – | binding to FKBP12 (in words) (FKBP12): did not bind; binding to FKBP12.6 (in words) (FKBP12.6): did not bind; Ki (FKBP51FK1; Ki, bound to FKBP51, text b114): 1200 nM
COc1ccc(CC[C@H]2OC(=O)[C@@H]3CCCCN3C(=O)[C@@H](C3CCCCC3)NC(=O)C3(CCC3)NC(=O)COc3cccc2c3)cc1OC [Compound 87, (2′R,5'S,12′R)-12′-cyclohexyl-2′-[2-(3,4-dimethoxyphenyl)ethyl]-3′, 19′-dioxa-10′, 13′, 16′-triazaspiro[cyclobutane-1,15′-tricyclo[18.3.1.0^5,10° ]tetracosane]-1′(24′),20′, 22′-triene-4′, 11′, 14′, 17′-tetrone] | – | – | – | > 80000 nM | > 80000 nM | 400 nM | –
COc1ccc(CC[C@H]2OC(=O)[C@@H]3CCCCN3C(=O)[C@@H](C3CCCCC3)NC(=O)[C@H](C)NC(=O)COc3cccc2c3)cc1OC [Compound 91, (2R,5S,12R,15S)-12-cyclohexyl-2-[2-(3,4-dimethoxyphenyl)ethyl]-15-methyl-3,19-dioxa-10,13,16-triazatricyclo[18.3.1.0^5,10]tetracosa-1(24),20,22-triene-4,11,14,17-tetrone] | – | – | – | > 80000 nM | > 80000 nM | – | affinity (in words) (FKBP51FK1): bound more weakly
COc1ccc(CC[C@H]2OC(=O)[C@@H]3CCCCN3C(=O)[C@@H](C3CCCCC3)NC(=O)CCNC(=O)COc3cccc2c3)cc1OC [Compound 93, (2R,5S,12R)-12-cyclohexyl-2-[2-(3,4-dimethoxyphenyl)ethyl]-3,20-dioxa-10,13,17-triazatricyclo[19.3.1.0^5,10]pentacosa-1(25),21,23-triene-4,11,14,18-tetrone] | – | – | – | > 80000 nM | > 80000 nM | – | affinity (in words) (FKBP51FK1): reduced affinity; Ki (FKBP51FK1; FKBP51FK1 Ki [μM], Table 2, [a] standard error from three, [c] error from two independent measurements): 7400 nM
COc1ccc(CC[C@H]2OC(=O)[C@@H]3CCCCN3C(=O)[C@@H](C3CCCCC3)NC(=O)[C@@H]3CCC[C@H]3NC(=O)COc3cccc2c3)cc1OC [Compound 94, (2R,5S,12R,15R,19R)-12-cyclohexyl-2-[2-(3,4-dimethoxyphenyl)ethyl]-3,23-dioxa-10,13,20-triazatetracyclo[22.3.1.0^5,10.0^15,19]octacosa-1(28),24,26-triene-4,11,14,21-tetrone] | – | – | – | > 80000 nM | > 80000 nM | 1800 nM | –
COc1ccc(CC[C@@H](OC(=O)[C@@H]2CCCCN2C(=O)[C@H](c2cc(OC)c(OC)c(OC)c2)C2CCCCC2)c2cccc(OCC(=O)O)c2)cc1OC [SAFit1, reference compound] | – | – | – | 163 ± 9 nM | 19 ± 2 nM | – | Ki (FKBP51FK1; read-out: FKBP51FK1 Ki, Table 2, [a] standard error from three, [c] error from two independent measurements): 4 ± 1 nM

Continued, in another order:

Ki (FKBP12; [1]) | Ki (FKBP12.6; [2]) | Ki (FKBP51FK1; [3]) | Ki (FKBP12; Table 2, read-out: FKBP12 Ki) | Ki (FKBP12.6; Table 2, read-out: FKBP12.6 Ki) | Ki (FKBP51FK1; [4]) | SMILES | further results
412 nM | 190 nM | 64 nM | – | – | – | COc1ccc(CC[C@H]2OC(=O)[C@@H]3CCCCN3C(=O)[C@@H](C3CCCCC3)c3cc(OC)c(c(OC)c3)OCCOc3cccc2c3)cc1OC [Compound 55] | –
384 nM | 211 nM | 67 nM | – | – | – | COc1ccc(CC[C@H]2OC(=O)[C@@H]3CCCCN3C(=O)[C@@H](C3CCCCC3)c3cc(OC)c(c(OC)c3)OCCCOc3cccc2c3)cc1OC [Compound 56] | –
308 nM | 78 nM | 47 nM | – | – | – | COc1ccc(CC[C@H]2OC(=O)[C@@H]3CCCCN3C(=O)[C@@H](C3CCCCC3)c3cc(OC)c(OC)c(c3)OCCOc3cccc2c3)cc1OC [Compound 57] | –
58 nM | 37 nM | 28 nM | – | – | – | COc1ccc(CC[C@H]2OC(=O)[C@@H]3CCCCN3C(=O)[C@@H](C3CCCCC3)c3cc(OC)c(OC)c(c3)OCCCC(=O)COc3cccc2c3)cc1OC [Compound 61b] | –
39 nM | 57 nM | 23 nM | – | – | – | COc1ccc(CC[C@H]2OC(=O)[C@@H]3CCCCN3C(=O)[C@@H](C3CCCCC3)c3cc(OC)c(OC)c(c3)OCCOCC(=O)CCOc3cccc2c3)cc1OC [Compound 62] | –
– | – | – | > 80000 nM | > 80000 nM | 2300 nM | COc1ccc(CC[C@H]2OC(=O)[C@@H]3CCCCN3C(=O)[C@@H](C3CCCCC3)NC(=O)CNC(=O)COc3cccc2c3)cc1OC [Compound 83, (2R,5S,12R)-12-cyclohexyl-2-[2-(3,4-dimethoxyphenyl)ethyl]-3,19-dioxa-10,13,16-triazatricyclo[18.3.1.0^5,10]tetracosa-1(24),20,22-triene-4,11,14,17-tetrone] | –
– | – | – | > 80000 nM | > 80000 nM | 290 nM | COc1ccc(CC[C@H]2OC(=O)[C@@H]3CCCCN3C(=O)[C@@H](C3CCCCC3)NC(=O)C(C)(C)NC(=O)COc3cccc2c3)cc1OC [Compound 85, (2R,5S,12R)-12-cyclohexyl-2-[2-(3,4-dimethoxyphenyl)ethyl]-15,15-dimethyl-3,19-dioxa-10,13,16-triazatricyclo[18.3.1.0^5,10]tetracosa-1(24),20,22-triene-4,11,14,17-tetrone] | –
– | – | – | > 80000 nM | > 80000 nM | 1300 nM | COc1ccc(CC[C@H]2OC(=O)[C@@H]3CCCCN3C(=O)[C@@H](C3CCCCC3)NC(=O)C3(CCCC3)NC(=O)COc3cccc2c3)cc1OC [Compound 88, (2′R,5'S,12′R)-12′-cyclohexyl-2′-[2-(3,4-dimethoxyphenyl)ethyl]-3′, 19′-dioxa-10′, 13′, 16′-triazaspiro[cyclopentane-1,15′-tricyclo[18.3.1.0^5,10]tetracosane]-1′(24′),20′, 22′-triene-4′, 11′, 14′, 17′-tetrone] | –
– | – | – | > 80000 nM | > 80000 nM | 3100 nM | COc1ccc(CC[C@H]2OC(=O)[C@@H]3CCCCN3C(=O)[C@@H](C3CCCCC3)NC(=O)CN(C)C(=O)COc3cccc2c3)cc1OC [Compound 89, (2R,5S,12R)-12-cyclohexyl-2-[2-(3,4-dimethoxyphenyl)ethyl]-16-methyl-3,19-dioxa-10,13,16-triazatricyclo[18.3.1.0^5,10]tetracosa-1(24),20,22-triene-4,11,14,17-tetrone] | –
– | – | – | > 80000 nM | > 80000 nM | – | COc1ccc(CC[C@H]2OC(=O)[C@@H]3CCCCN3C(=O)[C@@H](C3CCCCC3)NC(=O)[C@@H]3CCCN3C(=O)COc3cccc2c3)cc1OC [Compound 92, (9S,12R,19S,22R)-12-cyclohexyl-22-[2-(3,4-dimethoxyphenyl)ethyl]-2,21-dioxa-5,11,14-triazatetracyclo[21.3.1.0^5,9.0^14,19]heptacosa-1(26),23(27),24-triene-4,10,13,20-tetrone] | affinity (in words) (FKBP51FK1): substantially reduced affinity
222 nM | 199 nM | 94 nM | – | – | – | COc1cccc([C@@H](CCc2ccc(OC)c(OC)c2)OC(=O)[C@@H]2CCCCN2C(=O)[C@H](c2cc(OC)c(OC)c(OC)c2)C2CCCCC2)c1 [Compound A1, reference compound] | –
